According to paper PMC9017349, “Spiropyrimidinetriones: a Class of DNA Gyrase Inhibitors with Activity against Mycobacterium tuberculosis and without Cross-Resistance to Fluoroquinolones” (Antimicrobial Agents and Chemotherapy, 2022):
Values after ≈ are worked out from the molar mass of the structure shown. Like-named read-outs stand apart in the source and are kept apart here.

Tested on: M. tuberculosis H37Rv
Assay: MIC against M. tuberculosis H37Rv in 7H9 medium with various supplements
Format: cell-based, Mycobacterium tuberculosis
Conditions: for MIC: Mycobacterium tuberculosis, H37RV; for fold more active than zoliflodacin against M. tuberculosis: H37Rv, across the MIC media
[1] = read-out: MIC, DPPC/Chol/BSA/TX

| SMILES | MIC (read-out: MIC, ADC/GLU/TW) [µM] | MIC (read-out: MIC, DPPC/CAS/TX) [µM] | MIC [1] [µM] | MIC (read-out: MIC, GLU/BSA/TX) [µM] | MIC (read-out: MIC, GLU/CAS/TX) [µM] | fold more active than zoliflodacin against M. tuberculosis |
| --- | --- | --- | --- | --- | --- | --- |
| CC1CN2c3c(cc4c(N5C(=O)OCC5CCO)noc4c3F)CC3(C(=O)NC(=O)NC3=O)C2C(C)O1 (centres unmarked) [Compound 1] | 3.9 (≈ 2.02 µg/mL) | 6.2 (≈ 3.21 µg/mL) | 9.4 (≈ 4.86 µg/mL) | 9.4 (≈ 4.86 µg/mL) | 4.7 (≈ 2.43 µg/mL) | – |
| CC1CN2c3c(cc4c(N5C(=O)OCC5CO)noc4c3F)CC3(C(=O)NC(=O)NC3=O)C2C(C)O1 (centres unmarked) [Compound 2] | 2 (≈ 1.01 µg/mL) | 6.2 (≈ 3.12 µg/mL) | 4.7 (≈ 2.37 µg/mL) | 6.2 (≈ 3.12 µg/mL) | 3.1 (≈ 1.56 µg/mL) | – |
| CC1CN2c3c(cc4c(N5CC(CO)OC5=O)noc4c3Cl)CC3(C(=O)NC(=O)NC3=O)C2C(C)O1 (centres unmarked) [Compound 3] | 2 (≈ 1.04 µg/mL) | 6.2 (≈ 3.22 µg/mL) | 4.7 (≈ 2.44 µg/mL) | 4.7 (≈ 2.44 µg/mL) | 2.3 (≈ 1.2 µg/mL) | – |
| CC1CN2c3c(cc4c(N5C(=O)OCC5CCCO)noc4c3Cl)CC3(C(=O)NC(=O)NC3=O)C2C(C)O1 (centres unmarked) [Compound 4] | 4.8 (≈ 2.63 µg/mL) | 12 (≈ 6.58 µg/mL) | 12 (≈ 6.58 µg/mL) | 12 (≈ 6.58 µg/mL) | 9.4 (≈ 5.15 µg/mL) | – |
| C[C@@H]1CN(c2noc3c(F)c4c(cc23)CC2(C(=O)NC(=O)NC2=O)[C@H]2[C@H](C)O[C@H](C)CN42)C(=O)O1 [Compound 5] | 2 (≈ 0.975 µg/mL) | 12 (≈ 5.85 µg/mL) | 6.2 (≈ 3.02 µg/mL) | 9.4 (≈ 4.58 µg/mL) | 4.7 (≈ 2.29 µg/mL) | about 2 fold |
| CC1CN2c3c(cc4c(N5C(=O)OC6COCC65)noc4c3F)CC3(C(=O)NC(=O)NC3=O)C2C(C)O1 (centres unmarked) [Compound 6] | 0.98 (≈ 0.505 µg/mL) | 4.7 (≈ 2.42 µg/mL) | 2.3 (≈ 1.19 µg/mL) | 3.1 (≈ 1.6 µg/mL) | 1.6 (≈ 0.825 µg/mL) | – |
| CC1CN2c3c(cc4c(N5C(=O)OC(C)C5C)noc4c3F)CC3(C(=O)NC(=O)NC3=O)C2C(C)O1 (centres unmarked) [Compound 7] | 3.9 (≈ 1.96 µg/mL) | 37 (≈ 18.6 µg/mL) | 19 (≈ 9.53 µg/mL) | 25 (≈ 12.5 µg/mL) | 12 (≈ 6.02 µg/mL) | – |
| COCC1COC(=O)N1c1noc2c(F)c3c(cc12)CC1(C(=O)NC(=O)NC1=O)C1C(C)OC(C)CN31 (centres unmarked) [Compound 8] | 7.8 (≈ 4.04 µg/mL) | 25 (≈ 12.9 µg/mL) | 12 (≈ 6.21 µg/mL) | 25 (≈ 12.9 µg/mL) | 19 (≈ 9.83 µg/mL) | – |
| CC1CN2c3c(cc4c(N5C(=O)OCC5c5ncnn5C)noc4c3F)CC3(C(=O)NC(=O)NC3=O)C2C(C)O1 (centres unmarked) [Compound 9] | 16 (≈ 8.87 µg/mL) | > 50 | > 50 | > 50 | 37 (≈ 20.5 µg/mL) | – |
| CC1CN2c3c(cc4c(N5C(=O)OC6COCCC65)noc4c3F)CC3(C(=O)NC(=O)NC3=O)C2C(C)O1 (centres unmarked) [Compound 10] | 3.9 (≈ 2.06 µg/mL) | 12 (≈ 6.35 µg/mL) | 12 (≈ 6.35 µg/mL) | 12 (≈ 6.35 µg/mL) | 6.2 (≈ 3.28 µg/mL) | – |
| COCC1[C@@H](C)OC(=O)N1c1noc2c(F)c3c(cc12)CC1(C(=O)NC(=O)NC1=O)[C@H]1[C@H](C)O[C@H](C)CN31 (some centres unmarked) [Compound 11] | 31 (≈ 16.5 µg/mL) | > 50 | > 50 | > 50 | > 50 | – |
| CC1CN2c3c(cc4c(N5CC(c6ccccn6)OC5=O)noc4c3F)CC3(C(=O)NC(=O)NC3=O)C2C(C)O1 (centres unmarked) [Compound 12] | > 50 | > 50 | > 50 | > 50 | > 50 | – |
| CC1CN2c3c(cc4c(N5C(=O)OC6CCOCC65)noc4c3F)CC3(C(=O)NC(=O)NC3=O)C2C(C)O1 (centres unmarked) [Compound 13] | 1.9 (≈ 1.01 µg/mL) | 12 (≈ 6.35 µg/mL) | 4.7 (≈ 2.49 µg/mL) | 6.2 (≈ 3.28 µg/mL) | 4.7 (≈ 2.49 µg/mL) | – |
| C[C@@H]1CN2c3c(cc4c(-n5ncnc5NCCO)noc4c3F)CC3(C(=O)NC(=O)NC3=O)[C@H]2[C@H](C)O1 [Compound 14] | 0.24 (≈ 0.123 µg/mL) | 1.6 (≈ 0.823 µg/mL) | 1.2 (≈ 0.617 µg/mL) | 1.2 (≈ 0.617 µg/mL) | 0.6 (≈ 0.309 µg/mL) | 16 fold |
| C[C@@H]1CN2c3c(cc4c(-n5ncnc5NCCN(C)C)noc4c3F)CC3(C(=O)NC(=O)NC3=O)[C@H]2[C@H](C)O1 [Compound 15] | 2 (≈ 1.08 µg/mL) | 1.6 (≈ 0.866 µg/mL) | 3.1 (≈ 1.68 µg/mL) | 1.6 (≈ 0.866 µg/mL) | 2.3 (≈ 1.25 µg/mL) | – |
